From publication PMC10023787, “Trio-pharmacophore DNA-encoded chemical library for simultaneous selection of fragments and linkers” (Nature Communications, 2023)
Where two headings read alike, the source gives them in different places.

Legend:
MMP-2 [1] = molecular target: T1, MMP-2 (Homo sapiens, UniProt P08253); test: De novo T-DEL selection against MMP-2, NGS decoding; assay type: binding; settings: de novo T-DEL selection against MMP-2
T1 construct: purchased Sino Biological 10082-HNAH
T1 sequence (P08253 110-660): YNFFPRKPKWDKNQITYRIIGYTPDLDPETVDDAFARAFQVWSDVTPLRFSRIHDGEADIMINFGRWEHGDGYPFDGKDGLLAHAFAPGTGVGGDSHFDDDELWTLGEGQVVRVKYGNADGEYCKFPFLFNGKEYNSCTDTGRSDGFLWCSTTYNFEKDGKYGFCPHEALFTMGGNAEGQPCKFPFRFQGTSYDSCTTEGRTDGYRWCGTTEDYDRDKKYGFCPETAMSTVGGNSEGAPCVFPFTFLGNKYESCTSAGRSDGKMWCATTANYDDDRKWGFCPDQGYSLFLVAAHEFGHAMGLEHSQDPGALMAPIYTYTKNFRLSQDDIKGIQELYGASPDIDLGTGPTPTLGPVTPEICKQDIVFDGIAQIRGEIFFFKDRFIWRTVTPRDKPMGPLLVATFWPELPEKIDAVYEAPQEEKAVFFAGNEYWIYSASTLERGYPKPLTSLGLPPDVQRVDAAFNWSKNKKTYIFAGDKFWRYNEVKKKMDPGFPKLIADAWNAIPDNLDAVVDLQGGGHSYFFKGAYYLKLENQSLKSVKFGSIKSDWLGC
Text: Matrix metalloproteinases (MMPs) are zinc-dependent endopeptidases capable of degrading and remodeling extracellular matrix components[46],[47]. They are attractive therapeutic targets as high expression levels were detected in various diseases, such as inflammatory diseases, and at different stages of cancers, including metastasis, invasion, and angiogenesis[47]–[53]. As shown in Supplementary Fig. 3c, we performed selections against the two gelatinases (human MMP-2 and human MMP-9) to identify binding fragments for later design and synthesis of small molecule inhibitors. After selection, the three sub-libraries were decoded, and the enrichment was calculated by dividing the post-selection fraction (count/total counts) by the pre-selection fraction (Fig. 4a and Supplementary Fig. 13).
4 µg of MMP-2/MMP-9 was dissolved in 100 µl of selection buffer containing 25 mM Tris-base, 10 mM CaCl2, 150 mM NaCl, 0.05% Tween 20, pH 7.5. 10 µl of 4-Aminophenylmercuric acetate (APMA) (100 mM) solution was added to the protein solution and incubated at 37 °C for 1 h. After activation, the solution was added on top of 40 µl pre-washed Ni-NTA resin and incubated for 30 min on a rotary shaker. The supernatant was discarded, and the resin was washed three times with the selection buffer.
For each independent selection, three sub-libraries were mixed in the selection buffer with a final concentration of 40 nM of each sub-library in 100 µl. The mixture was heat denatured at 90 °C for 1 min and slowly cooled down to allow the formation of the trio-pharmacophore library. The dynamic dual-pharmacophore DEL was provided by DyNAbind GmbH (Merck, DYNA001).
The assembled library was incubated with the protein-bound solid support for 2 h at RT on a rotary shaker. In parallel, selection on bare solid support served as the negative control to exclude promiscuous binders on the resin. After panning, the supernatant was discarded, and the resin was washed three times with 1 ml selection buffer. Finally, 100 µl of 50 mM Tris buffer, pH 7.4 was added to resuspend the resin and the resin was incubated at 95 °C for 5 min to denature the protein, release, and collect the bound library members.
The eluted library members were subjected to sample preparation for NGS. NGS preparation was achieved by two-step PCR. First, the individual selection was indexed using primers containing unique sequences corresponding to each selection. The amplified product was purified from 2% agarose gel. Second, the purified DNA from all selections were pooled in equal amount and subjected to the 2nd PCR step to attach sequences compatible with the NGS flow cell and the sequencing primers. NGS was performed by Novogene UK with Novaseq 6000. Raw data files (fastq files) obtained were decoded using a custom python script and excel. The sequence reads corresponding to each sample was retrieved by searching for the correct index unique to each selection. Then, the code region was extracted from each sequence and assigned to the corresponding identity. The count of each code in each selection sample was obtained by looping through the total reads and counting the occurrence of each code. The enrichment fold of each compound was calculated by first, dividing the count by the total count to get the abundance, second, the abundance after the selection was divided by the abundance of pre-selection to reflect the distribution change of the compound. Next, the enrichment fold was plotted against the count for each member of the library to give the scatter plots as in Fig. 4.

MMP-2 [2] = molecular target: T1, MMP-2; test: MMP-2 inhibition assay (fluorogenic peptide substrate); assay type: biochemical
How it was run: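 Human proMMP-2 and proMMP-9 were activated with 1 mM APMA (37 °C, 2 h), then used at 6.5 nM (MMP-2) or 10 nM (MMP-9) in Tris/NaCl/CaCl2/Brij 35 buffer, pH 7.5. Enzyme was preincubated with compound 30 min at RT; 25 μM DNP-Pro-Leu-Gly-Met-Trp-Ser-Arg substrate was added and fluorescence (ex 280/em 360 nm) followed 30 min. IC50 from logistic fits of Vmax.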

With `NCc1c[nH]nn1` [Compound 787] the “MMP2 SL-A Count” value (MMP-2 [1]; NGS sequence count of sub-library SL-A building block) was 589, the “MMP2 SL-C Count” value (MMP-2 [1]; NGS sequence count of sub-library SL-C building block) was 2395 and the “MMP2 SL-A Enrichment Fold” value (MMP-2 [1]; sub-library SL-A building block) was 0.846. The “MMP2 SL-C Enrichment Fold” value (MMP-2 [1]; sub-library SL-C building block) was 2.519, the remaining activity at 0.0156098 µM (MMP-2 [2]; Figure 5a, fragment concentration 0.0156098 µM, read-out: Normalized activity (Mean)) was 101% and the remaining activity at 0.0780488 µM (MMP-2 [2]; Figure 5a, fragment concentration 0.0780488 µM, read-out: Normalized activity (Mean)) was 93.4%. It also gave a remaining activity at 0.390244 µM (MMP-2 [2]; Figure 5a, fragment concentration 0.390244 µM, read-out: Normalized activity (Mean)) of 108%, a remaining activity at 1.95122 µM (MMP-2 [2]; Figure 5a, fragment concentration 1.95122 µM, read-out: Normalized activity (Mean)) of 92.2% and a remaining activity at 9.7561 µM (MMP-2 [2]; Figure 5a, fragment concentration 9.7561 µM, read-out: Normalized activity (Mean)) of 105%. For the same compound, the remaining activity at 48.7805 µM (MMP-2 [2]; Figure 5a, fragment concentration 48.7805 µM, read-out: Normalized activity (Mean)) was 96.9%, the remaining activity at 243.902 µM (MMP-2 [2]; Figure 5a, fragment concentration 243.902 µM, read-out: Normalized activity (Mean)) was 87.8% and the remaining activity at 1219.51 µM (MMP-2 [2]; Figure 5a, fragment concentration 1219.51 µM, read-out: Normalized activity (Mean)) was 57.1%. For the same compound, the remaining activity at 0.0156 µM (MMP-2 [2]; MMP-2, concentration 0.0156 µM, read-out: Mean (MMP-2, Supplementary fig 16)) was 101%, the remaining activity at 0.08 µM (MMP-2 [2]; MMP-2, concentration 0.08 µM, read-out: Mean (MMP-2, Supplementary fig 16)) was 93.5% and the remaining activity at 0.39 µM (MMP-2 [2]; MMP-2, concentration 0.39 µM, read-out: Mean (MMP-2, Supplementary fig 16)) was 108%. The remaining activity at 1.95 µM (MMP-2 [2]; MMP-2, concentration 1.95 µM, read-out: Mean (MMP-2, Supplementary fig 16)) was 92.2%, the remaining activity at 9.76 µM (MMP-2 [2]; MMP-2, concentration 9.76 µM, read-out: Mean (MMP-2, Supplementary fig 16)) was 105% and the remaining activity at 48.78 µM (MMP-2 [2]; MMP-2, concentration 48.78 µM, read-out: Mean (MMP-2, Supplementary fig 16)) was 96.9%. The remaining activity at 243.9 µM (MMP-2 [2]; MMP-2, concentration 243.90 µM, read-out: Mean (MMP-2, Supplementary fig 16)) was 87.8%, the remaining activity at 0.0156 µM (MMP-2 [2]; MMP-2, concentration 0.0156 µM, read-out: Mean (MMP-2 dose-response, Supplementary fig 15)) was 101% and the remaining activity at 0.0156 µM (MMP-2 [2]; MMP-2, concentration 0.0156 µM, read-out: Mean (dose-response, Supplementary fig 17)) was 101%. The remaining activity at 0.08 µM (MMP-2 [2]; MMP-2, concentration 0.08 µM, read-out: Mean (MMP-2 dose-response, Supplementary fig 15)) was 93.5%, the remaining activity at 0.08 µM (MMP-2 [2]; MMP-2, concentration 0.08 µM, read-out: Mean (dose-response, Supplementary fig 17)) was 93.5% and the remaining activity at 0.39 µM (MMP-2 [2]; MMP-2, concentration 0.39 µM, read-out: Mean (MMP-2 dose-response, Supplementary fig 15)) was 108%. For the same compound, the remaining activity at 0.39 µM (MMP-2 [2]; MMP-2, concentration 0.39 µM, read-out: Mean (dose-response, Supplementary fig 17)) was 108%, the remaining activity at 1.95 µM (MMP-2 [2]; MMP-2, concentration 1.95 µM, read-out: Mean (MMP-2 dose-response, Supplementary fig 15)) was 92.2% and the remaining activity at 1.95 µM (MMP-2 [2]; MMP-2, concentration 1.95 µM, read-out: Mean (dose-response, Supplementary fig 17)) was 92.2%. The remaining activity at 9.75 µM (MMP-2 [2]; MMP-2, concentration 9.75 µM, read-out: Mean (MMP-2 dose-response, Supplementary fig 15)) was 105%, the remaining activity at 9.76 µM (MMP-2 [2]; MMP-2, concentration 9.76 µM, read-out: Mean (dose-response, Supplementary fig 17)) was 105% and the remaining activity at 48.76 µM (MMP-2 [2]; MMP-2, concentration 48.76 µM, read-out: Mean (MMP-2 dose-response, Supplementary fig 15)) was 96.9%. For the same compound, the remaining activity at 48.78 µM (MMP-2 [2]; MMP-2, concentration 48.78 µM, read-out: Mean (dose-response, Supplementary fig 17)) was 96.9%, the remaining activity at 243.8 µM (MMP-2 [2]; MMP-2, concentration 243.80 µM, read-out: Mean (MMP-2 dose-response, Supplementary fig 15)) was 87.8% and the remaining activity at 243.9 µM (MMP-2 [2]; MMP-2, concentration 243.90 µM, read-out: Mean (dose-response, Supplementary fig 17)) was 87.8%. For the same compound, the remaining activity at 1219.51 µM (MMP-2 [2]; MMP-2, concentration 1219.51 µM, read-out: Mean (dose-response, Supplementary fig 17)) was 57.1%.
